Columns and labels:
[1] = test system: A-2780 xenografts; assay: A-2780 ovarian cancer xenograft tumor growth inhibition in mice; type: in vivo, mouse; details: Compound A 10 mg/kg oral TID×21 alone
Experimental: (§1) Human tumor mouse xenografts are generated from early passages of the following ovarian cancer cell lines: A-2780 (National Cancer Institute), SK-OV-3x.luc (SK-OV-3 cell line modified to express luciferase (#1, medium expressing), Indiana University). A-2780 ovarian cancer cells are grown in RPMI 1640 with L-glutamine, 25 mM HEPES (Invitrogen 22400-089) supplemented with 1 mM pyruvate and 10% Certified Fetal Bovine Serum (Gibco 16000, FBS). SK-OV-3x.luc cells (ovarian cancer cells) are grown in McCoy's 5A Medium with L-glutamine (Invitrogen 16600-082) supplemented with non-essential amino acids, 1 mM pyruvate and 10% FBS. Harlan athymic nude mice (6-7 weeks old) are housed with ad libitum feed and water, and are acclimated for one week prior to subcutaneous xenograft implantation in the right rear flank with a defined number of cells. […] Compound A, 30 mg/kg, oral, TID×21/gemcitabine+cisplatin, 100+4 mg/kg, IP, QW×3* • *SK-OV-3x.luc study only Tumor volume and body weight are recorded and analyzed twice weekly using a data capture and analysis tool. Tumor volume (mm^3) is estimated by using the formula: ν=l×w^2×0.536 where l=larger of measured diameter and w=smaller of perpendicular diameter. Antitumor activity is calculated as a percent reduction of treated (T) tumor volume relative to untreated control (C) tumor volume [1−(T/C)]×100. […]

[2] = test system: SK-OV-3x.luc xenografts; assay: SK-OV-3x.luc ovarian cancer xenograft tumor growth inhibition in mice; type: in vivo, mouse
Experimental: as §1, with “cells. A-2780 or SK-OV-3x.luc implants consist of 0.1 mL of cells (2 or 5×10^6 cells, respectively) in serum-free media with 0.1 mL MATRIGEL® (BD Biosciences) for a final volume of 0.2 mL. Tumors are allowed to develop to a volume of 120-150 mm^3 and are then randomized into treatment groups to attain a consistent average tumor size across all groups. Each treatment group of the SK-OV-3x.luc study is 12 animals; each group of the A-2780 study is 20 animals. Compound A is prepared weekly in hydroxyethylcellulose (HEC) 1%/TWEEN® 80 0.25%/Antifoam 0.05% (HEC/TWEEN®) and stored at 4° C.” for “cells.”

In the case of `CC(C)(C)Cn1c(N)nc2ccc(-c3nc(C(C)(C)C)[nH]c3-c3ccc(F)cc3)nc21` [Compound A, 5-[2-tert-Butyl-5-(4-fluorophenyl)-1H-imidazol-4-yl]-3-(2,2-dimethylpropyl)imidazo[4,5-b]pyridin-2-amine dimethanesulfonate], the “Max % wt. loss” value [1] is reported as 3.0%, the final tumor volume ([1]; 3 weeks) is reported as 1828 ± 208 mm^3 and the “Max % wt. loss” value ([2]; Compound A 30 mg/kg oral TID×21 alone, SK-OV-3x.luc) is reported as 1.4%. For the same compound, the final tumor volume ([2]; Compound A 30 mg/kg oral TID×21 alone, SK-OV-3x.luc, 3 weeks) was 522 ± 54 mm^3 and the “final average tumor volume compared with vehicle control” value ([2]; Compound A alone, 3 weeks, SK-OV-3x.luc xenografts) was “not significantly different from vehicle control”.
